PubChem BioAssay (NCI)
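Following 48 hours of exposure in 96-well plates, responses at five concentrations were used to interpolate endpoints linearly. GI50 marks 50% less growth. At the TGI there is no net growth.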

Key:
Assay in all cases: NCI tumour cell line growth inhibition, 48 h
KM12 colon = test system: KM12 colon
SF-268 CNS = test system: SF-268 CNS
OVCAR-4 ovarian = test system: OVCAR-4 ovarian
HCT-116 colon = test system: HCT-116 colon
SW-620 colon = test system: SW-620 colon
SN12C renal = test system: SN12C renal
EKVX NSCLC = test system: EKVX NSCLC
HCC-2998 colon = test system: HCC-2998 colon
TK-10 renal = test system: TK-10 renal
MALME-3M melanoma = test system: MALME-3M melanoma
T-47D breast = test system: T-47D breast
HOP-92 NSCLC = test system: HOP-92 NSCLC
MDA-MB-231 breast = test system: MDA-MB-231 breast
SF-539 CNS = test system: SF-539 CNS
NCI/ADR-RES ovarian = test system: NCI/ADR-RES ovarian
SNB-19 CNS = test system: SNB-19 CNS
OVCAR-8 ovarian = test system: OVCAR-8 ovarian
786-0 renal = test system: 786-0 renal
HT29 colon = test system: HT29 colon
A549 NSCLC = test system: A549 NSCLC
A498 renal = test system: A498 renal
ACHN renal = test system: ACHN renal
NCI-H522 lung = test system: NCI-H522 lung
BT-549 breast = test system: BT-549 breast
NCI-H23 lung = test system: NCI-H23 lung
MDA-MB-435 = test system: MDA-MB-435
M14 melanoma = test system: M14 melanoma
OVCAR-5 ovarian = test system: OVCAR-5 ovarian
K-562 leukemia = test system: K-562 leukemia
UO-31 renal = test system: UO-31 renal
HOP-62 NSCLC = test system: HOP-62 NSCLC
HL-60(TB) leukemia = test system: HL-60(TB) leukemia
LOX IMVI melanoma = test system: LOX IMVI melanoma
U251 CNS = test system: U251 CNS
OVCAR-3 ovarian = test system: OVCAR-3 ovarian
COLO 205 colon = test system: COLO 205 colon
PC-3 prostate = test system: PC-3 prostate
MOLT-4 leukemia = test system: MOLT-4 leukemia
SK-OV-3 ovarian = test system: SK-OV-3 ovarian
RPMI-8226 leukemia = test system: RPMI-8226 leukemia
NCI-H226 lung = test system: NCI-H226 lung
CCRF-CEM leukemia = test system: CCRF-CEM leukemia
MCF7 breast = test system: MCF7 breast
UACC-62 melanoma = test system: UACC-62 melanoma
SK-MEL-2 melanoma = test system: SK-MEL-2 melanoma
CAKI-1 renal = test system: CAKI-1 renal
UACC-257 melanoma = test system: UACC-257 melanoma
HS 578T breast = test system: HS 578T breast
SF-295 CNS = test system: SF-295 CNS
IGROV1 ovarian = test system: IGROV1 ovarian
HCT-15 colon = test system: HCT-15 colon
SK-MEL-28 melanoma = test system: SK-MEL-28 melanoma
DU-145 prostate = test system: DU-145 prostate
SK-MEL-5 melanoma = test system: SK-MEL-5 melanoma
SNB-75 CNS = test system: SNB-75 CNS
NCI-H460 lung = test system: NCI-H460 lung
RXF 393 renal = test system: RXF 393 renal

Structure (SMILES): Cn1cc(-c2nonc2-c2c[nH]c3ccccc23)c2ccccc21
- GI50 (KM12 colon): 0.396 µM
- TGI (KM12 colon): 8.74 µM
- GI50 (SF-268 CNS): 0.725 µM
- TGI (SF-268 CNS): 13.2 µM
- GI50 (OVCAR-4 ovarian): 1.52 µM
- TGI (OVCAR-4 ovarian): 17 µM
- GI50 (HCT-116 colon): 0.404 µM
- TGI (HCT-116 colon): 10.5 µM
- GI50 (SW-620 colon): 0.335 µM
- TGI (SW-620 colon): 15.6 µM
- GI50 (SN12C renal): 0.477 µM
- TGI (SN12C renal): 12.1 µM
- GI50 (EKVX NSCLC): 0.567 µM
- TGI (EKVX NSCLC): 16 µM
- GI50 (HCC-2998 colon): 1.26 µM
- TGI (HCC-2998 colon): 7.08 µM
- GI50 (TK-10 renal): 1.55 µM
- TGI (TK-10 renal): 24.4 µM
- GI50 (MALME-3M melanoma): 0.635 µM
- TGI (MALME-3M melanoma): 17.7 µM
- GI50 (T-47D breast): 0.464 µM
- TGI (T-47D breast): 28.5 µM
- GI50 (HOP-92 NSCLC): 1.08 µM
- TGI (HOP-92 NSCLC): 9.91 µM
- GI50 (MDA-MB-231 breast): 0.489 µM
- TGI (MDA-MB-231 breast): 3.23 µM
- GI50 (SF-539 CNS): 0.276 µM
- TGI (SF-539 CNS): 1.07 µM
- GI50 (NCI/ADR-RES ovarian): 0.378 µM
- TGI (NCI/ADR-RES ovarian): 14 µM
- GI50 (SNB-19 CNS): 0.385 µM
- TGI (SNB-19 CNS): 10.9 µM
- GI50 (OVCAR-8 ovarian): 0.545 µM
- TGI (OVCAR-8 ovarian): 14.7 µM
- GI50 (786-0 renal): 0.611 µM
- TGI (786-0 renal): 7.94 µM
- GI50 (HT29 colon): 0.35 µM
- TGI (HT29 colon): 10.8 µM
- GI50 (A549 NSCLC): 0.728 µM
- TGI (A549 NSCLC): 22.1 µM
- GI50 (A498 renal): 0.435 µM
- TGI (A498 renal): 2.11 µM
- GI50 (ACHN renal): 0.527 µM
- TGI (ACHN renal): 13.4 µM
- GI50 (NCI-H522 lung): 0.366 µM
- TGI (NCI-H522 lung): 9.79 µM
- GI50 (BT-549 breast): 0.588 µM
- TGI (BT-549 breast): 7.78 µM
- GI50 (NCI-H23 lung): 0.85 µM
- TGI (NCI-H23 lung): 19.5 µM
- GI50 (MDA-MB-435): 0.182 µM
- TGI (MDA-MB-435): 0.494 µM
- GI50 (M14 melanoma): 0.317 µM
- TGI (M14 melanoma): 12 µM
- GI50 (OVCAR-5 ovarian): 1.24 µM
- TGI (OVCAR-5 ovarian): 16.4 µM
- GI50 (K-562 leukemia): 0.223 µM
- TGI (K-562 leukemia): > 36.9 µM
- GI50 (UO-31 renal): 0.323 µM
- TGI (UO-31 renal): 7.65 µM
- GI50 (HOP-62 NSCLC): 0.47 µM
- TGI (HOP-62 NSCLC): 17 µM
- GI50 (HL-60(TB) leukemia): 0.277 µM
- TGI (HL-60(TB) leukemia): 0.731 µM
- GI50 (LOX IMVI melanoma): 0.65 µM
- TGI (LOX IMVI melanoma): 13 µM
- GI50 (U251 CNS): 0.443 µM
- TGI (U251 CNS): 18.6 µM
- GI50 (OVCAR-3 ovarian): 0.323 µM
- TGI (OVCAR-3 ovarian): 2.01 µM
- GI50 (COLO 205 colon): 0.465 µM
- TGI (COLO 205 colon): 10.5 µM
- GI50 (PC-3 prostate): 0.488 µM
- TGI (PC-3 prostate): 17.2 µM
- GI50 (MOLT-4 leukemia): 0.499 µM
- TGI (MOLT-4 leukemia): 14.8 µM
- GI50 (SK-OV-3 ovarian): 0.563 µM
- TGI (SK-OV-3 ovarian): 18.4 µM
- GI50 (RPMI-8226 leukemia): 0.369 µM
- TGI (RPMI-8226 leukemia): 5.96 µM
- GI50 (NCI-H226 lung): 1.43 µM
- TGI (NCI-H226 lung): 24.3 µM
- GI50 (CCRF-CEM leukemia): 0.396 µM
- TGI (CCRF-CEM leukemia): 27.9 µM
- GI50 (MCF7 breast): 0.329 µM
- TGI (MCF7 breast): 15.3 µM
- GI50 (UACC-62 melanoma): 0.341 µM
- TGI (UACC-62 melanoma): 5.1 µM
- GI50 (SK-MEL-2 melanoma): 0.496 µM
- TGI (SK-MEL-2 melanoma): 14.6 µM
- GI50 (CAKI-1 renal): 0.413 µM
- TGI (CAKI-1 renal): 15 µM
- GI50 (UACC-257 melanoma): 0.918 µM
- TGI (UACC-257 melanoma): 20.5 µM
- GI50 (HS 578T breast): 0.298 µM
- TGI (HS 578T breast): 2.32 µM
- GI50 (SF-295 CNS): 0.352 µM
- TGI (SF-295 CNS): 2.97 µM
- GI50 (IGROV1 ovarian): 0.574 µM
- TGI (IGROV1 ovarian): 18.3 µM
- GI50 (HCT-15 colon): 0.354 µM
- TGI (HCT-15 colon): 11.3 µM
- GI50 (SK-MEL-28 melanoma): 1.45 µM
- TGI (SK-MEL-28 melanoma): 18.1 µM
- GI50 (DU-145 prostate): 0.511 µM
- TGI (DU-145 prostate): 12.7 µM
- GI50 (SK-MEL-5 melanoma): 0.518 µM
- TGI (SK-MEL-5 melanoma): 12.9 µM
- GI50 (SNB-75 CNS): 0.188 µM
- TGI (SNB-75 CNS): 0.761 µM
- GI50 (NCI-H460 lung): 0.375 µM
- TGI (NCI-H460 lung): 7.78 µM
- GI50 (RXF 393 renal): 0.378 µM
- TGI (RXF 393 renal): 5.7 µM
